According to ChEMBL document CHEMBL5346860, “Cancer multidrug-resistance reversal by ABCB1 inhibition: A recent update” (Eur J Med Chem, 2022):
One block for each compound: values may come before it.

What was measured:
[1] = cells; settings: Homo sapiens, KBVIN, 72 h
Description: Antiproliferative activity against multidrug-resistant human KB-VIN cells assessed as cell growth inhibition incubated for 72 hrs by SRB assay

[2] = Antiproliferative activity against human Flp-In-293 cells expressing ABCB1 assessed as cell growth inhibition incubated for 72 hrs by SRB assay; type: toxicity, cell-based
[3] = biological target: T1, ATP-dependent translocase ABCB1 (Homo sapiens, UniProt P08183); experiment: Inhibition of ABCB1 in human HEK293 cells; type: cell-based
T1 sequence (P08183 whole entry): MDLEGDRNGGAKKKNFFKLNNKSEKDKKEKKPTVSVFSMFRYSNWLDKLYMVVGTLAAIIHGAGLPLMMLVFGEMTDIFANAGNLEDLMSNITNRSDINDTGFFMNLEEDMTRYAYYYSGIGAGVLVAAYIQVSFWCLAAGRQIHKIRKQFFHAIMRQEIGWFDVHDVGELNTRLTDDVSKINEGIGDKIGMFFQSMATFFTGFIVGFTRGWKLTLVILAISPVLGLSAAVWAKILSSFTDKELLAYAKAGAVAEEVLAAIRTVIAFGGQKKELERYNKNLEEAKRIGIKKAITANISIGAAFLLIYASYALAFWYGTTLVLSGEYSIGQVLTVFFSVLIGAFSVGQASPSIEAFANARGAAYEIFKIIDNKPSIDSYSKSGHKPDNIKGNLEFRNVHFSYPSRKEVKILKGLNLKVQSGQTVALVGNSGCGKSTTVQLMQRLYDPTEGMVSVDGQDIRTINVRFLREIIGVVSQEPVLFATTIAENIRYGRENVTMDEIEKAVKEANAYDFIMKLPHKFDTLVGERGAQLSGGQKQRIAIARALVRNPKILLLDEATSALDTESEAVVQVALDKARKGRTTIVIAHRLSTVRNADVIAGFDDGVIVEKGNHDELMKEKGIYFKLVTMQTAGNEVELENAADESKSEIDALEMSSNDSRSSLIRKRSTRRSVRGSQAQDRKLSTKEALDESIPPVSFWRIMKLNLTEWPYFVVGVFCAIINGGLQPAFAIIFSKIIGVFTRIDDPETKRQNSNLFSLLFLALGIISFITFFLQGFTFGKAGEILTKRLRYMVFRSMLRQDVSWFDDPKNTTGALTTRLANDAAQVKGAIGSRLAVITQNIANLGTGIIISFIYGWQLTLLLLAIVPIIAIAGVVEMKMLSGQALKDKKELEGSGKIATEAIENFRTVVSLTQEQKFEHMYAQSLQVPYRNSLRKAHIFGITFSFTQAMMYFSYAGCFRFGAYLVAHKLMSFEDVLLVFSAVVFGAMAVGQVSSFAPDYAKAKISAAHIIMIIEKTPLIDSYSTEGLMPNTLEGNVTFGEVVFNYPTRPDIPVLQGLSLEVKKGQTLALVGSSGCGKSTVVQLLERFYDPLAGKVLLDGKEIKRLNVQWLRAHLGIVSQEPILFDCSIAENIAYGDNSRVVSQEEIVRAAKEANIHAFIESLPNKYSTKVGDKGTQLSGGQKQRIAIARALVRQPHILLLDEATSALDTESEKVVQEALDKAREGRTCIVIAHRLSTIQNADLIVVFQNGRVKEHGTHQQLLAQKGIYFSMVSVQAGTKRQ

[4] = test system: HeLa S3; experiment: cells; settings: Homo sapiens, HeLa S3, 72 h
Description: Antiproliferative activity against drug-sensitive human HeLaS3 cells assessed as cell growth inhibition incubated for 72 hrs by SRB assay

[5] = cells; settings: Homo sapiens, EPP85-181RDB, 72 h
Description: Antiproliferative activity against daunorubicin-resistant human EPP85-181 cells incubated for 72 hrs by annexin-V-PI staining based flow cytometry

[6] = Antiproliferative activity against daunorubicin-resistant human EPG85-257 cells incubated for 72 hrs by annexin-V-PI staining based flow cytometry; type: functional, EPG85-257RDB
[7] = test system: P388/ADR; experiment: Potency index, ratio of verapamil IC50 to compound IC50 for reversal of ABCB1 mediated doxorubicin-resistance in mouse P388/ADR cells assessed as cell growth inhibition incubated for 48 hrs by MTT assay; type: functional
[8] = test system: P388/ADR; experiment: Reversal of ABCB1 mediated doxorubicin-resistance in mouse P388/ADR cells assessed as cell growth inhibition incubated for 48 hrs by MTT assay; type: functional, cell-based
[9] = biological target: T1, ATP-dependent translocase ABCB1; experiment: Inhibition of ABCB1 in human HEK293 cells in the presence of doxorubicin; type: cell-based
[10] = Reversal of drug resistance in paclitaxel-resistant human TOV-21G cells assessed as fold change in paclitaxel IC50 in presence of paclitaxel; type: functional, paclitaxel-resistant human TOV-21G cell
[11] = Reversal of drug resistance in paclitaxel-resistant human OVCAR-3 cells assessed as fold decrease in paclitaxel IC50 in presence of paclitaxel; type: functional, paclitaxel-resistant human OVCAR-3 cell
[12] = biological target: T1, ATP-dependent translocase ABCB1; experiment: Inhibition of ABCB1 in multi-drug resistance human HL-60 cells assessed as increase in daunorubicin accumulation; type: cell-based
[13] = test system: U-937; experiment: Antiproliferative activity against human U-937 cells assessed as inhibition of cell survival by MTT assay; type: functional; settings: read-out: LC50 (the source's name)
[14] = test system: HL-60; experiment: Antiproliferative activity against human HL-60 cells assessed as inhibition of cell survival by MTT assay; type: functional; settings: read-out: LC50 (the source's name)
[15] = Antiproliferative activity against human HaCaT cells assessed as inhibition of cell survival by MTT assay; type: toxicity, cell-based; settings: read-out: LC50 (the source's name)
[16] = test system: HEK293; experiment: Antiproliferative activity against human HEK293 cells assessed as inhibition of cell survival by MTT assay; type: functional; settings: read-out: LC50 (the source's name)
[17] = Antiproliferative activity against human BJ cells assessed as inhibition of cell survival by MTT assay; type: toxicity, cell-based; settings: read-out: LC50 (the source's name)
[18] = test system: SH-SY5Y; experiment: Antiproliferative activity against human SH-SY5Y cells assessed as inhibition of cell survival by MTT assay; type: functional; settings: read-out: LC50 (the source's name)
[19] = test system: A549/TR; experiment: Potentiation of paclitaxel induced antiproliferative activity against human A549/Taxol cells overexpressing ABCB1 assessed as fold reduction in paclitaxel IC50 by MTT assay relative to control
[20] = test system: A2780/Taxol; experiment: Potentiation of paclitaxel induced antiproliferative activity against human A2780/Taxol cells overexpressing ABCB1 assessed as fold reduction in paclitaxel IC50 by MTT assay relative to control; type: functional
[21] = test system: A549/TR; experiment: Antiproliferative activity against human A549/Taxol cells overexpressing ABCB1 assessed as cell growth inhibition by MTT assay; type: functional, cell-based
[22] = test system: A2780/Taxol; experiment: Antiproliferative activity against human A2780/Taxol cells overexpressing ABCB1 assessed as cell growth inhibition by MTT assay; type: functional, cell-based
[23] = test system: 4T1; experiment: Antitumor activity against mouse 4T1 cells implanted in Balb/c mouse assessed as tumor growth inhibition at 4 mg/kg administered once for every two days measured after 15 days by immunohistochemical analysis relative to control; type: functional; settings: 4T1, 360 h, time 15 day
[24] = test system: ADR5000 cell line; experiment: Antitumor activity against human CEM/ADR5000 cells assessed as fold increase in doxorubicin accumulation; type: functional

Structure (SMILES): COc1cc([C@@H]2c3cc4c(cc3[C@@H](O[C@@H]3O[C@@H]5CO[C@@H](C)O[C@H]5[C@H](O)[C@H]3O)[C@H]3COC(=O)[C@H]23)OCO4)cc(OC)c1O [ETOPOSIDE]
IC50 [5]: 62 µM
IC5 [6]: 6.2 µM

Structure (SMILES): COc1ccc2cc1Oc1ccc(cc1)C[C@H]1c3cc(c(OC)cc3CCN1C)Oc1c(OC)c(OC)c(OC)c3c1[C@H](C2)N(C)CC3 [HERNANDEZINE]
IC50 [9]: 0.025 µM

Structure (SMILES): CS(=O)(=O)CCNCc1ccc(-c2ccc3ncnc(Nc4ccc(OCc5cccc(F)c5)c(Cl)c4)c3c2)o1 [LAPATINIB]
fold change (FC) [10]: 20.7
fold change (FC) [11]: 6.2

Structure (SMILES): Cc1cn(-c2cc(NC(=O)c3ccc(C)c(Nc4nccc(-c5cccnc5)n4)c3)cc(C(F)(F)F)c2)cn1 [NILOTINIB]
CC50 [13]: 2.3 µM
CC50 [14]: 1.7 µM
CC50 [15]: 3.9 µM
CC50 [16]: 5.9 µM
CC50 [17]: 5.6 µM
CC50 [18]: 4.2 µM

Structure (SMILES): COc1ccc(-c2cc(=O)c3c(OC)c(OC)c(OC)c(OC)c3o2)cc1OC [NOBILETIN]
fold change (FC) [19]: 15.92
fold change (FC) [20]: 15.92
IC50 [21]: 9 µM
IC50 [22]: 9 µM

Structure (SMILES): C=CC(=O)N1CCC(Oc2cc3c(Nc4ccc(Cl)c(Cl)c4F)ncnc3cc2OC)CC1 [POZIOTINIB]
fold change (FC) [10]: 20.7
fold change (FC) [11]: 6.2

Structure (SMILES): CC(=O)O[C@@H]1C[C@H](O)[C@@]23CO[C@@H](O)[C@]1(C)[C@@H]2C[C@@H](O)[C@]1(C)[C@@H]3C(=O)[C@H](OC(C)=O)[C@@]2(C)[C@H](c3ccoc3)C[C@H]3O[C@]321 [TOOSENDANIN]
inhibition in vivo at 4 mg/kg [23]: 90%

Structure (SMILES): COc1ccc(CCN(C)CCCC(C#N)(c2ccc(OC)c(OC)c2)C(C)C)cc1OC (configuration not stated) [VERAPAMIL]
fold change (FC) [24]: 4.7

Further lines, with some results ahead:

IC50 [1]: < 40 µM
IC50 [3]: 0.504 µM
IC50 [4]: < 40 µM
Structure (SMILES): COc1cccc2c1C(=O)c1c(O)c3c(c(O)c1C2=O)C[C@@](O)(C(=O)CO)C[C@@H]3O[C@H]1C[C@H](N)[C@H](O)[C@H](C)O1 [DOXORUBICIN]
IC50 at 72 h [2]: < 40 µM

IC50 [8]: 30 µM
Structure (SMILES): COc1ccc(CCN(C)CCCOc2ccc(S(=O)(=O)c3c(C(C)C)cn4ccccc34)cc2)cc1OC [FANTOFARONE]
Ratio IC50 [7]: 4.5

IC50 [12]: 0.068 µM
Structure (SMILES): CO[C@@H]1[C@H](N(C)C(=O)c2ccccc2)C[C@H]2O[C@]1(C)n1c3ccccc3c3c4c(c5c6ccccc6n2c5c31)C(=O)NC4 [MIDOSTAURIN]

IC50 [1]: < 40 µM
IC50 [4]: < 40 µM
Structure (SMILES): CC(=O)O[C@H]1C(=O)[C@@]2(C)[C@H]([C@H](OC(=O)c3ccccc3)[C@]3(O)C[C@H](OC(=O)[C@H](O)[C@@H](NC(=O)c4ccccc4)c4ccccc4)C(C)=C1C3(C)C)[C@]1(OC(C)=O)CO[C@@H]1C[C@@H]2O [PACLITAXEL]
IC50 at 72 h [2]: < 40 µM

IC50 [1]: < 40 µM
IC50 [4]: < 40 µM
Structure (SMILES): CC[C@]1(O)C[C@H]2CN(CCc3c([nH]c4ccccc34)[C@@](C(=O)OC)(c3cc4c(cc3OC)N(C=O)[C@H]3[C@@](O)(C(=O)OC)[C@H](OC(C)=O)[C@]5(CC)C=CCN6CC[C@]43[C@@H]65)C2)C1 [VINCRISTINE]
IC50 at 72 h [2]: < 40 µM
